Data from patent US11371040B2, “Endonuclease-barcoding” (priority 2015, dated 2022).

Legend:
HCT-116 cells = test: TP53 CRISPR-barcoding (TP53-STOP vs TP53-WT barcode, qPCR) in HCT-116 cells; type: cell-based; conditions: relative to TP53-WT control barcode
Description: (§1) 293T (human embryonic kidney), DLD-1, HCT-116 (colorectal carcinoma), MCF-7 (breast cancer) were obtained from ATCC, PC9 cells (NSCLC) were obtained from ECACC-Sigma-Aldrich, Kelly cells (neuroblastoma) were a kind gift from Dr. C. Einvik. All cells were grown in Dulbecco's modified Eagle's Medium (Life technologies) except Kelly and PC-9 cells, grown in Roswell Park Memorial Institute medium (Life technologies), both supplemented with 10% fetal bovine serum (FBS, Life Technologies) and 0.6% penicillin/streptomycin (Life technologies). Cells were transfected with a Nucleofector II device (Lonza) using the Amaxa Nucleofector kit (Lonza) and electroporation program recommended by the manufacturer. 293T cells were transfected using polyethylenimine (Polysciences). The efficiency of each transfection was assessed in parallel using a GFP-containing plasmid. […]
(§2) gDNA was extracted using the NucleoSpin Tissue kit (Macherey-Nagel). […] Primer specificity for each particular barcode was assessed. qPCR was performed from 100 ng of gDNA using SYBR Green (Life Technologies) on a 7900 HT Fast-Real-Time, a Q-PCR ABI PRISM 7500 or a QuantStudio Flex PCR System (Life Technologies). qPCR analysis was performed using the standard curve or the Pfaffl methods (Pfaffl, 2001).

MCF7 cells = test: TP53 CRISPR-barcoding (TP53-STOP vs TP53-WT barcode, qPCR) in MCF7 cells; type: cell-based; conditions: relative to TP53-WT control barcode
Description: as §1, §2

PC9 cells [1] = test: Mouse xenografts of multiplex CRISPR-barcoded PC9 cells; type: in vivo, SCID mice
Description: PC9 cells containing the EGFR-T790, KRAS-G12 and EML4-ALK barcodes were resuspended in PBS and subcutaneously inoculated in the left and right flank (2×10^6 cells per site) of male SCID mice (NCI). The size of the tumors was measured by caliper every 3-4 days. […] When the size of at least one of the tumors reached the arbitrary volume of 550 mm^3, the mice were sacrificed and gDNA was extracted from the tumors for qPCR analysis.
When at least one of the two tumors exceeded the arbitrary volume of 550 mm^3, the mice were sacrificed and gDNA was derived from the tumors. The frequency of the three different mutations in the tumor samples was measured by qPCR and normalized to the levels observed in the same batch of cells prior to injection in the mice.

PC9 cells [2] = test: KRAS-G12 CRISPR-barcoding in PC9 cells; type: cell-based; conditions: PC9 cells treated in the presence or absence of inhibitor
Description: CRISPR Barcoding sgRNA target sequences (See Sequence Listing—SEQ ID No 1-14) were designed using the CRISPR Design tool hosted by the Massachusetts Institute of Technology (see the website located at crispr.mit,edu) to minimize potential off-target effects. Oligos encoding the targeting sequence were then annealed and ligated into the pSpCas9(BB)-2A-Puro (Ran et al., 2013) vector digested with Bbsl (New England Biolabs). The sequence of the ssODNs (Integrated DNA Technologies) used for CRISPR/Cas9-mediated HDR, containing one missense/nonsense mutation coupled with different silent mutations, are provided in the sequence listing (SEQ ID No 15-29). The set of silent mutations is designed to enable PCR specificity and to avoid recognition by the corresponding sgRNA used to cleave the endogenous sequence. For each targeted locus, cells were co-transfected with 2 μg of the CRISPR/Cas9 plasmid and […] of either the control or the sense/nonsense ssODN (50 μM). […]
gDNA was extracted using the NucleoSpin Tissue kit (Macherey-Nagel). […] Primer specificity for each particular barcode was assessed. qPCR was performed from 100 ng of gDNA using SYBR Green (Life Technologies) on a 7900 HT Fast-Real-Time, a Q-PCR ABI PRISM 7500 or a QuantStudio Flex PCR System (Life Technologies). qPCR analysis was performed using the standard curve or the Pfaffl methods (Pfaffl, 2001). […]

PC9 cells [3] = test: EML4-ALK inversion barcoding in PC9 cells; type: cell-based

SMILES	fraction of cells containing the TP53-STOP barcode (HCT-116 cells)	fraction of cells containing the TP53-STOP barcode (MCF7 cells)	growth of the tumors (PC9 cells [1]; 25 mg/kg/day by gavage, from day 16 after injection)	proportion of all three mutations (EGFR-T790M, KRAS-G12D, EML4-ALK) in the tumors (PC9 cells [1]; 25 mg/kg/day, qPCR, normalized to cells prior to injection)	enrichment of KRAS-G12D cells (PC9 cells [2])	enrichment of EML4-ALK containing PC9 cells (PC9 cells [3])
COc1ccc(C2=N[C@@H](c3ccc(Cl)cc3)[C@@H](c3ccc(Cl)cc3)N2C(=O)N2CCNC(=O)C2)c(OC(C)C)c1 (racemic) [Nutlin 3]	significantly increased	significantly increased				
COc1cccc2c1C(=O)c1c(O)c3c(c(O)c1C2=O)C[C@@](O)(C(=O)CO)C[C@@H]3O[C@H]1C[C@H](N)[C@H](O)[C@H](C)O1 [doxorubicin]	did not affect	did not affect				
COc1cc2ncnc(Nc3ccc(F)c(Cl)c3)c2cc1OCCCN1CCOCC1 [gefitinib]			initially arrested upon gefitinib treatment, but it eventually resumed after a few weeks	strongly increased	significant enrichment	induced an enrichment
